According to patent US12350270B2, “Antimalarial agents” (Merck Sharp & Dohme LLC, priority 2019, dated 2025):
pEC50: −log10 of the molar value.

test system: parasites (ring stage, in human red blood cell culture); experiment: Parasite LDH growth assay (antiparasite potency, Parasite Assay); format: cell-based, Plasmodium falciparum; conditions: 0.7% rings, 2% haematocrit, 72 hours at 37° C., LDH readout of parasite growth
Method in brief: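 Growth was read by an LDH assay after a freeze–thaw cycle (−80 °C overnight, 4 h thaw at RT). Before that, parasites grew with compound for 72 h at 37 °C under gassed, humidified conditions. The input was a ring-stage culture adjusted to 0.7% parasitemia and 2% haematocrit in serum (5%)/albumax (0.5%)-supplemented RPMI-Hepes.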

Row | SMILES | pEC50
1 | CCC1(CC)CC(=O)N([C@H]2c3cc(C(=O)N[C@@H]4c5ccccc5C[C@H]4O)ccc3CC2OC)C(=N)N1 (stereo partly drawn) [Example 140B, (3S)-3-(4,4-diethyl-2-imino-6-oxo-hexahydropyrimidin-1-yl)-N-[(1R,2R)-2-hydroxyindan-1-yl]-2-methoxy-indane-5-carboxamide] | 8.77

same assay, conditions: Plasmodium falciparum, Erythrocyte, 72 h, 0.7% rings, 2% haematocrit, 72 hours at 37° C., LDH readout of parasite growth

Row | SMILES | pEC50
2 | CCC1(CC)CC(=O)N([C@H]2c3cc(C(=O)N[C@@H]4c5ccccc5C[C@H]4O)ccc3CC2OC)C(=N)N1 (stereo partly drawn) [Example 140A, (3S)-3-(4,4-diethyl-1-imino-6-oxo-hexahydroyrimidin-1-yl)-N-[(1R,2R)-2-hydroxyindan-1-yl]-2-methoxy-indane-5-carboxamide] | 8.85
3 | CC[C@]1(C)CC(=O)N([C@@H]2CCOc3ccc(C(=O)N[C@@H]4c5ccccc5OC[C@H]4OC)cc32)C(=N)N1 [Example 141, (4R)-4-[(4R)-4-ethyl-2-imino-4-methyl-6-oxo-hexahydropyrimidin-1-yl]-N-[(3S,4R)-3-methoxychroman-4-yl]chromane-6-carboxamide] | 8.08
4 | COC1COc2ccc(C(=O)N[C@@H]3c4ccccc4C[C@]3(C)O)cc2C1N1C(=N)NC(C)(C)CC1=O (stereo partly drawn) [Example 142, N-[(1R,2S)-2-hydroxy-2-methyl-indan-1-yl]-4-(2-imino-4,4-dimethyl-6-oxo-hexahydropyrimidin-1-yl)-3-methoxy-chromane-6-carboxamide] | 7.01
5 | COC1COc2ccc(C(=O)N[C@@H]3c4ccccc4C[C@@]3(C)O)cc2C1N1C(=N)NC(C)(C)CC1=O (stereo partly drawn) [Example 143, N-[(1R,2R)-2-hydroxy-2-methyl-indan-1-yl]-4-(1-imino-4,4-dimethyl-6-oxo-hexahydropyrimidin-1-yl)-3-methoxy-chromane-6-carboxamide] | 6.75
6 | CC1(C)CC(=O)N(C2c3cc(C(=O)N[C@H]4CC(C)(C)Oc5ccccc54)ccc3OCC2O)C(=N)N1 (stereo partly drawn) [Example 144, N-[(4S)-2,2-dimethylchroman-4-yl]-3-hydroxy-4-(2-imino-4,4-dimethyl-6-oxo-hexahydropyrimidin-1-yl)chromane-6-carboxamide] | 6.71
7 | CC[C@]1(C)CC(=O)N(C2c3cc(C(=O)N[C@@H]4c5ccccc5C[C@H]4O)ccc3OCC2OC)C(=N)N1 (stereo partly drawn) [Example 145, 4-[(4R)-4-ethyl-2-imino-4-methyl-6-oxo-hexahydropyrimidin-1-yl]-N-[(1R,2R)-2-hydroxyindan-1-yl]-3-methoxy-chromane-6-carboxamide] | 7.39
8 | COCC1(C)Oc2ccc(C(=O)N[C@@H]3c4ccccc4C[C@H]3O)cc2C1N1C(=N)NC(C)(C)CC1=O (stereo partly drawn) [Example 146, N-[(1R,2R)-2-hydroxyindan-1-yl]-3-(2-imino-4,4-dimethyl-6-oxo-hexahydropyrimidin-1-yl)-2-(methoxymethyl)-2-methyl-3H-benzofuran-5-carboxamide] | 7.45
9 | CCC1(CC)CC(=O)N([C@@H]2CCOc3ccc(C(=O)N[C@H]4c5cc(F)ccc5C[C@@H]4O)cc32)C(=N)N1 [Example 147, (4R)-4-(4,4-diethyl-2-imino-6-oxo-hexahydropyrimidin-1-yl)-N-[(1S,2S)-6-fluoro-2-hydroxy-indan-1-yl]chromane-6-carboxamide] | 6.80
10 | CCC1(CC)CC(=O)N([C@@H]2CCOc3ccc(C(=O)N[C@@H]4c5cc(F)ccc5C[C@H]4O)cc32)C(=N)N1 [Example 148, (4R)-4-(4,4-diethyl-2-imino-6-oxo-hexahydropyrimidin-1-yl)-N-[(1R,2R)-6-fluoro-2-hydroxy-indan-1-yl]chromane-6-carboxamide] | 8.57
11 | CC1(C)CC(=O)N([C@@H]2CCc3ccc(C(=O)N[C@@H]4c5cc(F)ccc5OC(C)(C)[C@H]4O)cc32)C(=N)N1 [Example 149, (3R)-N-[(3S,4R)-6-fluoro-3-hydroxy-2,2-dimethyl-chroman-4-yl]-3-(2-imino-4,4-dimethyl-6-oxo-hexahydropyrimidin-1-yl)indane-5-carboxamide] | 8.96
12 | CCC1(CC)CC(=O)N([C@@H]2CCOc3ccc(C(=O)NC(CO)c4ccccc4OC)cc32)C(=N)N1 (stereo partly drawn) [Example 150, (4R)-4-(4,4-diethyl-2-imino-6-oxo-hexahydropyrimidin-1-yl)-N-[2-hydroxy-1-(2-methoxyphenyl)ethyl]chromane-6-carboxamide] | 7.31
13 | CC[C@]1(C)CC(=O)N([C@@H]2CCOc3ccc(C(=O)NC4c5cc(F)ccc5OCC4O)cc32)C(=N)N1 (stereo partly drawn) [Example 151, (4R)-4-[(4R)-4-ethyl-2-imino-4-methyl-6-oxo-hexahydropyrimidin-1-yl]-N-(6-fluoro-3-hydroxy-chroman-4-yl)chromane-6-carboxamide] | 8.27
14 | CCC1(CC)CC(=O)N([C@@H]2CCOc3ccc(C(=O)NC4c5ccccc5CC4(F)F)cc32)C(=N)N1 (stereo partly drawn) [Example 152, (4R)-4-(4,4-diethyl-2-imino-6-oxo-hexahydropyrimidin-1-yl)-N-(2,2-difluoroindan-1-yl)chromane-6-carboxamide] | 8.11
15 | CC1(C)CC(=O)N([C@@H]2CCOc3ccc(C(=O)N[C@@H]4c5cc(Cl)ccc5OC[C@H]4O)cc32)C(=N)N1 [Example 153, (4R)-N-[(3S,4R)-6-chloro-3-hydroxy-chroman-4-yl]-4-(2-imino-4,4-dimethyl-6-oxo-hexahydropyrimidin-1-yl)chromane-6-carboxamide] | 7.94
16 | CCC1(CC)CC(=O)N([C@@H]2CCOc3ccc(C(=O)N[C@@H]4c5ccccc5C5(CC5)[C@H]4O)cc32)C(=N)N1 [Example 154, (4R)-4-(4,4-diethyl-2-imino-6-oxo-hexahydropyrimidin-1-yl)-N-[(1′R,2′R)-2′-hydroxyspiro[cyclopropane-1,3′-indane]-1′-yl]chromane-6-carboxamide] | 9.15
17 | CCC1(CC)CC(=O)N([C@@H]2CCOc3ccc(C(=O)N[C@H]4c5ccccc5C5(CC5)[C@@H]4O)cc32)C(=N)N1 [Example 155, (4R)-4-(4,4-diethyl-2-imino-6-oxo-hexahydropyrimidin-1-yl)-N-[(1′S,2′S)-2′-hydroxyspiro[cyclopropane-1,3′-indane]-1′-yl]chromane-6-carboxamide] | 7.08
18 | CCC1(CC)CC(=O)N([C@@H]2CCCc3ccc(C(=O)N[C@H]4CC(C)(C)Oc5ccccc54)cc32)C(=N)N1 [Example 156, (4R)-4-(4,4-diethyl-2-imino-6-oxo-hexahydropyrimidin-1-yl)-N-[(4S)-2,2-dimethylchroman-4-yl]tetralin-6-carboxamide] | 8.96
19 | CCC1(CC)CC(=O)N([C@@H]2C[C@@H](OC)c3ccc(C(=O)N[C@@H]4c5ccccc5C[C@@]4(C)O)cc32)C(=N)N1 [Example 157, (1R,3R)-3-(4,4-diethyl-2-imino-6-oxo-hexahydropyrimidin-1-yl)-N-[(1R,2R)-2-hydroxy-2-methyl-indan-1-yl]-1-methoxy-indane-5-carboxamide] | 7.70
20 | CCC1(CC)CC(=O)N([C@@H]2C[C@H](OC)c3ccc(C(=O)N[C@@H]4c5ccccc5C[C@@]4(C)O)cc32)C(=N)N1 [Example 158, (1S,3R)-3-(4,4-diethyl-2-imino-6-oxo-hexahydropyrimidin-1-yl)-N-[(1R,2R)-2-hydroxy-2-methyl-indan-1-yl]-1-methoxy-indane-5-carboxamide] | 9.05
21 | CCC1(CC)CC(=O)N([C@@H]2CCc3ccc(C(=O)N[C@@H]4c5ccccc5OC(C)(C)[C@H]4O)cc32)C(=N)N1 [Example 159, (3R)-3-(4,4-diethyl-2-imino-6-oxo-hexahydropyrimidin-1-yl)-N-[(3S,4R)-3-hydroxy-2,2-dimethyl-chroman-4-yl]indane-5-carboxamide] | 9.30
22 | CC1(C)CC(=O)N([C@@H]2CC(C)(C)c3ccc(C(=O)N[C@@H]4c5ccccc5OC(C)(C)[C@H]4O)cc32)C(=N)N1 [Example 160, (3R)-N-[(3S,4R)-3-hydroxy-2,2-dimethyl-chroman-4-yl]-3-(2-imino-4,4-dimethyl-6-oxo-hexahydropyrimidin-1-yl)-1,1-dimethyl-indane-5-carboxamide] | 8.08
23 | CCC1(CC)CC(=O)N(C2CCCc3ccc(C(=O)N[C@@H]4c5ccccc5OC[C@@]4(C)O)cc32)C(=N)N1 (stereo partly drawn) [Example 161, 8-(4,4-diethyl-2-imino-6-oxotetrahydropyrimidin-1(2H)-yl)-N-((3S,4R)-3-hydroxy-3-methylchroman-4-yl)-5,6,7,8-tetrahydronaphthalene-2-carboxamide] | 9.10
24 | CC1(C)CC(=O)N([C@H]2c3cc(C(=O)N[C@@H]4c5ccccc5OC(C)(C)[C@H]4O)ccc3CC2(C)C)C(=N)N1 [Example 162, (3R)-N-[(3S,4R)-3-hydroxy-2,2-dimethyl-chroman-4-yl]-3-(2-imino-4,4-dimethyl-6-oxo-hexahydropyrimidin-1-yl)-2,2-dimethyl-indane-5-carboxamide] | 8.12
25 | CCC1(CC)CC(=O)N([C@H]2c3cc(C(=O)N[C@@H]4c5ccccc5C[C@@]4(C)O)ccc3OC2(C)C)C(=N)N1 [Example 163, (3S)-3-(4,4-diethyl-2-imino-6-oxo-hexahydropyrimidin-1-yl)-N-[(1R,2R)-2-hydroxy-2-methyl-indan-1-yl]-2,2-dimethyl-3H-benzofuran-5-carboxamide] | 8.08
26 | CCC1(CC)CC(=O)N([C@@H]2C[C@@H](C)Oc3ccc(C(=O)N[C@@H]4c5ccccc5C[C@@]4(C)O)cc32)C(=N)N1 [Example 164, (2R,4R)-4-(4,4-diethyl-2-imino-6-oxo-hexahydropyrimidin-1-yl)-N-[(1R,2R)-2-hydroxy-2-methyl-indan-1-yl]-2-methyl-chromane-6-carboxamide] | 8.62
27 | CCC1(CC)CC(=O)N([C@H]2c3cc(C(=O)N[C@@H]4c5ccccc5C[C@H]4O)ccc3CC[C@@H]2OC)C(=N)N1 [Example 165, (3S,4S)-4-(4,4-diethyl-2-imino-6-oxo-hexahydropyrimidin-1-yl)-N-[(1R,2R)-2-hydroxyindan-1-yl]-3-methoxy-tetralin-6-carboxamide] | 8.47
